These results are taken from patent US6150414A, “Compositions and methods for treating viral infections” (priority 1992, dated 2000).

The test system of this test is Friend Leukemia Virus. Kind of test: Inhibition of Friend Leukemia Virus-induced splenomegaly in mice, compounds intraperitoneally 24 hours after virus (Example 1(a)). Type of test: in vivo, BALB/c mice. Set-up: Actual Spleen Weight / Average Spleen Weight: unit not given here. As to conditions: for inhibition in vivo at 0.1 mg / inhibition in vivo at 0.05 mg / inhibition in vivo at 0.2 mg: Mus musculus, ip; for Actual Spleen Weight: single animal; for Pooled Average % Inhibition: pooled over 50, 100, 200, 2 × 100 micrograms. An excerpt:
The effects of compositions according to the present invention on infection of mammals with Friend Leukemia Virus (FV) were examined.
Friend Leukemia Virus is an aggressive retrovirus which induces an acute erythroleukemia in sensitive strains of mice such as BALB/c and NIH swiss mice as described in Friend, C. J., Exp. Med. 105: 307-324, 1957; Friend, C. et al. Proc. Natl. Acad. Sci. USA 68: 378-383, 1971; Friend, C. et al. Natl. Cancer Inst. Mongr. 22: 508-552, 1966. The malignant transformation is the result of the combined activities of the Spleen Focus Forming Virus (SFFV) and the ecotropic Murine Friend Leukemia Helper Virus (F-MuLV). The acute erythroleukemia is characterized by hepatosplenomegaly (a marked increase in the size of the spleen and liver) and a severe anemia.
Friend Leukemia Virus was prepared by homogenizing the enlarged spleen of a mouse previously infected with FV, 10 days after intravenous virus injection. The spleen was homogenized in phosphate buffered saline in a volume equal to ten times the weight of the isolated spleen.
The effects of compositions according to the present invention on the increase in spleen size (splenomegaly) of BALB/c mice (Jackson Labs, Bar Harbor, ME) was examined. In these experiments, the virus (10^6 focus forming units--FFU) was inoculated intravenously and 100 micrograms of the compounds indicated in Table II were administered to the mice intraperitoneally 24 hours later. Each compound was administered once to two mice. The animals were sacrificed ten days later and their spleens weighed.
The present assay has been developed from similar assays using hypericin or pseudohypericin and employing higher numbers of experimental animals per group (e.g. 4 animals). It was discovered however that the specificity and sensitivity of this assay are such that an experimental group of two animals is of more than adequate predictive value.
As used in Table II (and subsequent Tables of this Example l(a) and (b), "average percent inhibition" is calculated as follows: [formula] wherein "ASWNC" designates "average spleen weight of negative control"; "ASWE" designates "average spleen weight of experimental (treated) subject"; and "ASWPC" designates "average spleen weight of positive control". Average spleen weight is the numerical average of spleen weights of each experimental group (in Table II each such group includes two members).
In these experiments, the virus (10^6 focus forming units--FFU) was inoculated intravenously, and the indicated doses of the antiviral compounds of this invention were administered to the BALB/c mice intraperitoneally 24 hours later. The animals were then sacrificed ten days later and their spleens weighed.
Pseudohypericin was diluted in phosphate buffered saline with 1% ethanol.
An expanded series of experiments was next performed in which various concentrations (i.e. 50, 100, 200 and 2×100, i.e., 100 micrograms administered twice) of a different set of PAC compounds (numbers 16-29 and 30-36 in Table III below) were administered intraperitoneally each according to the same protocol described above. Compounds 16-29 all had 3-5 fused, aromatic rings and no side groups except for oxygen or hydroxyl groups, whereas compounds 30-36 all had 3 fused aromatic rings and side chains selected from the group of oxygen, hydroxyl and methyl.
When 2 doses of the compounds were given, the second dose was administered 24-48 hours after the first injection. The animals were infected and splenomegaly determined as above for the compounds in Table II. In Table III, "pooled average percent inhibition" is calculated by adding the average percent inhibition for each experiment with the same compound and dividing the sum by the number of experiments (i.e. the number 4). […]

The mark [1] stands for this setting: read-out: Average Perdosage % Inhibition, dose 2 × 100 (micrograms) i.p., Table III.
[2] abbreviates: read-out: Average Perdosage % Inhibition, dose 50 (micrograms) i.p., Table III.
Setting [3] is: read-out: Average Perdosage % Inhibition, dose 100 (micrograms) i.p., Table III.
Where [4] appears, read: read-out: Average Perdosage % Inhibition, dose 200 (micrograms) i.p., Table III.
Setting [5] is: dose 2 × 100 (micrograms) i.p., Table III.
The mark [6] stands for this setting: dose 50 (micrograms) i.p., Table III.
Where [7] appears, read: dose 100 (micrograms) i.p., Table III.
[8] abbreviates: dose 200 (micrograms) i.p., Table III.
Setting [9] is: 100 micrograms i.p. once, 24 h after FV, Table II.
Setting [10] is: 24 h, read-out: Average % Inhibition, 100 micrograms i.p. once, 24 h after FV, Table II.
The mark [11] stands for this setting: 24 h, 100 micrograms i.p. once, 24 h after FV, Table II, read-out: Average % Inhibition.
Where [12] appears, read: dose 2 × 100 (micrograms) i.p., Table III, read-out: Average Perdosage % Inhibition.
Where [13] appears, read: dose 50 (micrograms) i.p., Table III, read-out: Average Perdosage % Inhibition.
[14] abbreviates: dose 100 (micrograms) i.p., Table III, read-out: Average Perdosage % Inhibition.
[15] abbreviates: dose 200 (micrograms) i.p., Table III, read-out: Average Perdosage % Inhibition.

Several values for one entry are separate records, joined by “and”; a condition that tells them apart may be missing. Identical values can stand only once. Like-named read-outs stand apart in the source and are kept apart here.

Consider `C=Cc1c2ccccc2cc2ccccc12` [Compound 29, 9-Vinylanthracene], for which the inhibition in vivo at 0.1 mg was 15% under setting [1] and 26% under setting [3]. Also, the inhibition in vivo at 0.05 mg under setting [2] was 4%. For the same molecule, the inhibition in vivo at 0.2 mg under setting [4] amounted to 21%. For the same molecule, the “Actual Spleen Weight” value reads like this: (dose 2 × 100 (micrograms) i.p., second dose 24-48 hours later, Table III) 1.3747; under setting [8], 1.2933. Besides, the “Average Spleen Weight” value reads like this: under setting [5], 1.3747; under setting [6], 1.6517; under setting [7], 1.2199; under setting [8], 1.2933. Further, the “Pooled Average % Inhibition” value (Table III) is given as 14%.

Consider `CC1=CC2CCc3ccc4ccccc4c3C2c2c1ccc1ccccc21` (centres unmarked) [Compound 12, 4A,5,6,12C-Tetrahydro-3-Methylphenanthro (3,4-C)phenanthrene], for which, under setting [9], the “Average Spleen Weight” value amounted to 0.4531. The inhibition in vivo at 0.1 mg under setting [10] worked out at 47.1%.

Take `O=C1CC2CC(=O)c3ccc4ccccc4c3C2c2c1ccc1ccccc21` (centres unmarked) [Compound 13, 3,4,4A,5,6,12C-Hexahydrophenanthro (3,4-C)Phenanthrene-3,6-Dione]: the “Average Spleen Weight” value under setting [9] amounted to 0.4742. Besides, under setting [11], the inhibition in vivo at 0.1 mg worked out at 44.6%.

On to `c1cc2cccc3c4cccc5cccc(c(c1)c23)c54` [Compound 27, Perylene], for which the inhibition in vivo at 0.1 mg under setting [1] came to 11% and the inhibition in vivo at 0.1 mg under setting [3] worked out at 5%. Besides, the inhibition in vivo at 0.05 mg under setting [2] was 19%. Moreover, under setting [4], the inhibition in vivo at 0.2 mg is 1%. In addition, the “Average Spleen Weight” value runs as follows: under setting [5], 1.4342; under setting [6], 1.3148; under setting [7], 1.5227; under setting [8], 1.6044. Also, the “Pooled Average % Inhibition” value (Table III) worked out at 9%.

Consider `c1ccc2c(c1)C1c3ccccc3C2c2ccccc21` [Compound 7, Triptycene], for which the “Average Spleen Weight” value under setting [9] stood at 0.4655. In addition, under “Example 1(a)”, the “inhibition of FV-induced splenomegaly / anti-retroviral activity” value is listed as “significantly inhibited FV-induced splenomegaly”. In addition, the inhibition in vivo at 0.1 mg under setting [11] was determined as 45.6%.

Regarding `O=C1CC2CCc3ccc4ccccc4c3C2c2c1ccc1ccccc21` (centres unmarked) [Compound 15, 3,4,4A,5,6,12C-Hexahydrophenanthro (3,4-C)phenanthren-3-one], the “Average Spleen Weight” value under setting [9] is listed as 0.3739. In addition, the inhibition in vivo at 0.1 mg under setting [11] is 56.3%.

As for `O=c1c2ccccc2oc2ccccc12` [Compound 31, Xanthone], the inhibition in vivo at 0.1 mg is, setting by setting: under setting [1], 62%; under setting [3], 58%. The inhibition in vivo at 0.05 mg under setting [2] is 57%. Besides, under setting [4], the inhibition in vivo at 0.2 mg is 60%. Moreover, the “Average Spleen Weight” value runs as follows: under setting [5], 0.9003; under setting [6], 1.0006; under setting [7], 0.9806; under setting [8], 0.9431. Moreover, for the setting “Table III”, the “Pooled Average % Inhibition” value was 59%.

For `O=c1oc(=O)c2c3ccc4ccc5ccc6ccc7ccc(c12)c1c7c6c5c4c31` [Compound 6, 3,4-Coronenedicarboxylic anhydride], the “Average Spleen Weight” value under setting [9] is 0.8700.

Regarding `c1ccc2c(c1)ccc1ccc3ccc4ccc5ccccc5c4c3c12` [Compound 14, Phenanthro(3,4-C)Phenanthrene], the “Average Spleen Weight” value under setting [9] was found to be 0.5419. Further, under setting [10], the inhibition in vivo at 0.1 mg came out at 36.6%.

As for `C1=CCC2=C(C1)CC1=C(CC=CC1)C2` [Compound 21, 1,4,5,8,9,10-Hexahydroanthracene], the inhibition in vivo at 0.1 mg reads like this: under setting [12], 23%; under setting [14], 13%. In addition, under setting [13], the inhibition in vivo at 0.05 mg was determined as 13%. Further, the inhibition in vivo at 0.2 mg under setting [15] is 21%. Also, the “Average Spleen Weight” value reads like this: under setting [5], 1.2624; under setting [6], 1.4036; under setting [7], 1.4121; under setting [8], 1.2947. Moreover, the “Pooled Average % Inhibition” value (Table III) came out at 17%.

In the case of `c1ccc(-c2c3ccccc3c(-c3ccccc3)c3ccccc23)cc1` [Compound 22, 9,10-Diphenylanthracene], the inhibition in vivo at 0.1 mg runs as follows: under setting [1], 13%; under setting [3], 5%. Besides, under setting [2], the inhibition in vivo at 0.05 mg amounted to 41%. Besides, the inhibition in vivo at 0.2 mg under setting [4] turned out to be 0%. The “Average Spleen Weight” value runs as follows: under setting [5], 1.4120; under setting [6], 0.9936; under setting [7], 1.5171; under setting [8], 1.5913. For the setting “Table III”, the “Pooled Average % Inhibition” value stood at 15%.

`O=c1oc(=O)c2c3ccc4cccc5c6cccc7ccc(c12)c(c76)c3c45` [Compound 5, Benzo(GHI)Perylene-1,2-Dicarboxylic Anhydride]: the “Average Spleen Weight” value under setting [9] is listed as 0.5101. For the same molecule, the inhibition in vivo at 0.1 mg under setting [10] turned out to be 40.5%.

On to `Cc1cc2ccc3ccc4ccccc4c3c2c2c1ccc1ccccc12` [Compound 11, 3-Methylphenanthro(3,4-C)Phenanthrene], for which the “Average Spleen Weight” value under setting [9] was 0.4235. In addition, under setting [10], the inhibition in vivo at 0.1 mg worked out at 50.5%.

`O=C1C(c2ccccc2)=C(c2ccccc2)C(c2ccccc2)=C1c1ccccc1` [Compound 24, Tetraphenylcyclo pentadienone]: the inhibition in vivo at 0.1 mg under setting [12] amounted to 24% and the inhibition in vivo at 0.1 mg under setting [14] stood at 14%. The inhibition in vivo at 0.05 mg under setting [13] worked out at 20%. Under setting [15], the inhibition in vivo at 0.2 mg is 6%. The “Average Spleen Weight” value is, setting by setting: under setting [5], 1.2437; under setting [6], 1.2959; under setting [7], 1.3940; under setting [8], 1.5070. Besides, the “Pooled Average % Inhibition” value (Table III) is recorded as 16%.

On to `O=C1c2ccccc2-c2cc(O)c3c4c(O)cc5c6c(ccc(c7ccc1c2c73)c64)C(=O)c1ccccc1-5` [Compound 4, 16,17-Dihydroxydibenzanthrone], for which, under setting [9], the “Average % Inhibition” value is reported as 50.9%; the “Average Spleen Weight” value was 0.4194; the “Actual Spleen Weight” value is 0.4151 and 0.4234.

`O=C1c2ccccc2C(=O)C1c1ccccc1` [Compound 33, 2-phenyl-1,2 inadione]: the inhibition in vivo at 0.1 mg is 61% under setting [12] and 16% under setting [14]. Also, the inhibition in vivo at 0.05 mg under setting [13] is 60%. Further, the inhibition in vivo at 0.2 mg under setting [15] worked out at 68%. Besides, the “Average Spleen Weight” value is on record as 0.9127 under setting [5], 0.9410 under setting [6], 1.7763 under setting [7] and 0.7938 under setting [8]. Also, the “Pooled Average % Inhibition” value (Table III) was 51%.

In the case of `c1ccc2c(c1)CCc1ccccc1-2` [Compound 20], the inhibition in vivo at 0.1 mg under setting [12] was determined as 6%. The inhibition in vivo at 0.05 mg under setting [13] was determined as 22%. For the same molecule, the inhibition in vivo at 0.2 mg under setting [15] is 11%. The “Average Spleen Weight” value under setting [5] came to 1.5023, the “Average Spleen Weight” value under setting [6] came out at 1.2758, the “Average Spleen Weight” value under setting [7] came to 2.0019 and the “Average Spleen Weight” value under setting [8] was 1.4315. The “Pooled Average % Inhibition” value (Table III) amounted to 3%.
